“Also recorded” adds a separate entry of the source.
Columns and labels:
gap junctions = test: fluorescence recovery after photobleaching (FRAP) of calcein AM in cardiac clusters; type: cell-based, mouse; details: carbenoxolone 50 μmol/L
Procedure: Functional coupling between cells is confirmed by fluorescence recovery after photobleaching (FRAP) analysis. Briefly, cardiac clusters were loaded with the membrane-permeant fluorescent dye calcein AM (5 μmol/L; Invitrogen) in Ca^2+-free Tyrode solution for 20 min at 37° C. After washing away the excess extracellular fluorescent dye to prevent further loading, the cultures were bathed in Ca^2+-free Tyrode solution and placed on the stage of a Zeiss LSM 5 PASCAL laser-scanning confocal microscope. Using Zeiss software, a rectangular region encompassing 30-50% of a single cell within a cell cluster was selected and its fluorescence was bleached by a high-intensity laser pulse (488 nm, 3-5 s duration). This caused immediate loss of calcein fluorescence emission recorded through a 505 nm long-pass emission filter. Calcein redistribution from adjacent unbleached cells through connexin pores into the bleached region of interest (ROI) was recorded in subsequent confocal images acquired at 30 s intervals for up to 10 min using a low-intensity laser pulse. Fluorescence recovery within ROI was plotted as a function of time and fit to a single exponential function: IROI (t)=A [1−exp (−kt)], where IROI (t) is the ROI fluorescence intensity at time t, A is the amplitude of fluorescence recovery, and k is the rate of recovery. The latter is considered a measure of gap junction permeability. […]

L-type calcium channels = target: T1, L-type calcium channels (Mus musculus, UniProt Q01815); test: chronotropic effects of cardioactive drugs on beating cardiac clusters; type: cell-based; details: beating cardiac clusters at day 5+15; for beating frequency / contraction: 10^−5 mol/L; for chronotropic effect on the beating frequency of maGSC-derived cardiomyocytes: dose dependence
T1 construct: functional L-type calcium channels exist in the maGSC-derived beating cardiomyocytes; endogenous in cells; host or cells: beating cardiac clusters (day 5+15) differentiated from mouse maGSCs
Source text: In cardiac muscle, where Ca^2+ influx across the sarcolemma is essential for contraction, the dihydropyridine (DHP)-sensitive L-type calcium channel (DHP receptor) represents the major entry pathway of extracellular Ca^2+. […] The function of L-type calcium channels is examined in beating cardiac clusters at day 5+15 by evaluating chronotropic effects of cardioactive drugs.

[1] = tested on: voltage-gated Na+ and L-type Ca2+ channels; test: patch-clamp spontaneous action potentials, channel blockade; type: cell-based, mouse; details: cadmium 0.5 mmol/L; maGSC-derived cardiomyocytes
Procedure: To determine the functional expression of […] receptors in cardiomyocytes, the effects of β-adrenergic agonist isoproterenol (Iso; 1 μmol/L) on APs were studied. […] This is again in line with data from the ESC-derived cardiomyocytes. […] A further hint for the involvement of fast depolarising Na^+ channels are AP upstroke velocities in the magnitude of 30-50 Vs^−1 for ventricle-, purkinje and atrial-like APs (Table 3).
The membrane potential (Em) of cardiomyocytes was measured at room temperature with ruptured-patch whole cell current clamp (Maier, L. S., et al., Circ Res 2003, 92, 904-11). Fire-polished glass microelectrodes of >10 MΩ resistance when filled with pipette solution were used. Pipette solution contained (in mM) 120 potassium aspartate, 8 KCl, 7 NaCl, 1 MgCl2, 10 HEPES, 5 Mg-ATP, 0.3 Li-GTP (pH 7.2 with KOH). A normal Tyrode's solution with 2 mM CaCl2 served as bath solution. Access resistance was typically ˜20 MΩ after patch rupture. Liquid junction potentials were corrected before recording started. Spontaneous action potentials (APs) were recorded 1 min after patch rupture and followed for about 2 min. Signals were acquired at 1 kHz, filtered with 2.9 and 10 kHz Bessel filters, and recorded with an EPC10 amplifier (HEKA Elektronik, Lambrecht/Pfalz, Germany). […]

human SSCs = test: formation of ESC-like colonies in culture of human SSCs; type: cell-based; details: BIO 1 μM; human cultures
Procedure: To optimize the culture condition, DMEM/F12 (1:1; Invitrogen) was applied instead of DMEM as basic medium and several growth factors for long-term culture were added: GDNF (4-50 ng/ml), bFGF (1-10 ng/ml), LIF (10^3 Units/ml), BIO (Calbiochem) and 1×B27 (Invitrogen). Collagenase IV (1 mg/ml in PBS) was used instead of trypsin/EDTA for passaging the cells. […] Tightly packed ESC-like colonies derived from human SSCs after 7 passages (about 1 month; FIG. 3d, e) when cells are cultured in DMEM/F12 medium containing 15% FCS, 2 mM glutamine, 1×NEAA, 50 μM β-ME, 10 ng/ml GDNF, 2 ng/ml bFGF, 10^3 Units/ml LIF and 1×B27.

non-human primate SSCs = test: formation of ESC-like colonies in culture of non-human primate SSCs; type: cell-based; details: BIO 1 μM; non-human primate cultures

T1 sequence (Q01815 whole entry): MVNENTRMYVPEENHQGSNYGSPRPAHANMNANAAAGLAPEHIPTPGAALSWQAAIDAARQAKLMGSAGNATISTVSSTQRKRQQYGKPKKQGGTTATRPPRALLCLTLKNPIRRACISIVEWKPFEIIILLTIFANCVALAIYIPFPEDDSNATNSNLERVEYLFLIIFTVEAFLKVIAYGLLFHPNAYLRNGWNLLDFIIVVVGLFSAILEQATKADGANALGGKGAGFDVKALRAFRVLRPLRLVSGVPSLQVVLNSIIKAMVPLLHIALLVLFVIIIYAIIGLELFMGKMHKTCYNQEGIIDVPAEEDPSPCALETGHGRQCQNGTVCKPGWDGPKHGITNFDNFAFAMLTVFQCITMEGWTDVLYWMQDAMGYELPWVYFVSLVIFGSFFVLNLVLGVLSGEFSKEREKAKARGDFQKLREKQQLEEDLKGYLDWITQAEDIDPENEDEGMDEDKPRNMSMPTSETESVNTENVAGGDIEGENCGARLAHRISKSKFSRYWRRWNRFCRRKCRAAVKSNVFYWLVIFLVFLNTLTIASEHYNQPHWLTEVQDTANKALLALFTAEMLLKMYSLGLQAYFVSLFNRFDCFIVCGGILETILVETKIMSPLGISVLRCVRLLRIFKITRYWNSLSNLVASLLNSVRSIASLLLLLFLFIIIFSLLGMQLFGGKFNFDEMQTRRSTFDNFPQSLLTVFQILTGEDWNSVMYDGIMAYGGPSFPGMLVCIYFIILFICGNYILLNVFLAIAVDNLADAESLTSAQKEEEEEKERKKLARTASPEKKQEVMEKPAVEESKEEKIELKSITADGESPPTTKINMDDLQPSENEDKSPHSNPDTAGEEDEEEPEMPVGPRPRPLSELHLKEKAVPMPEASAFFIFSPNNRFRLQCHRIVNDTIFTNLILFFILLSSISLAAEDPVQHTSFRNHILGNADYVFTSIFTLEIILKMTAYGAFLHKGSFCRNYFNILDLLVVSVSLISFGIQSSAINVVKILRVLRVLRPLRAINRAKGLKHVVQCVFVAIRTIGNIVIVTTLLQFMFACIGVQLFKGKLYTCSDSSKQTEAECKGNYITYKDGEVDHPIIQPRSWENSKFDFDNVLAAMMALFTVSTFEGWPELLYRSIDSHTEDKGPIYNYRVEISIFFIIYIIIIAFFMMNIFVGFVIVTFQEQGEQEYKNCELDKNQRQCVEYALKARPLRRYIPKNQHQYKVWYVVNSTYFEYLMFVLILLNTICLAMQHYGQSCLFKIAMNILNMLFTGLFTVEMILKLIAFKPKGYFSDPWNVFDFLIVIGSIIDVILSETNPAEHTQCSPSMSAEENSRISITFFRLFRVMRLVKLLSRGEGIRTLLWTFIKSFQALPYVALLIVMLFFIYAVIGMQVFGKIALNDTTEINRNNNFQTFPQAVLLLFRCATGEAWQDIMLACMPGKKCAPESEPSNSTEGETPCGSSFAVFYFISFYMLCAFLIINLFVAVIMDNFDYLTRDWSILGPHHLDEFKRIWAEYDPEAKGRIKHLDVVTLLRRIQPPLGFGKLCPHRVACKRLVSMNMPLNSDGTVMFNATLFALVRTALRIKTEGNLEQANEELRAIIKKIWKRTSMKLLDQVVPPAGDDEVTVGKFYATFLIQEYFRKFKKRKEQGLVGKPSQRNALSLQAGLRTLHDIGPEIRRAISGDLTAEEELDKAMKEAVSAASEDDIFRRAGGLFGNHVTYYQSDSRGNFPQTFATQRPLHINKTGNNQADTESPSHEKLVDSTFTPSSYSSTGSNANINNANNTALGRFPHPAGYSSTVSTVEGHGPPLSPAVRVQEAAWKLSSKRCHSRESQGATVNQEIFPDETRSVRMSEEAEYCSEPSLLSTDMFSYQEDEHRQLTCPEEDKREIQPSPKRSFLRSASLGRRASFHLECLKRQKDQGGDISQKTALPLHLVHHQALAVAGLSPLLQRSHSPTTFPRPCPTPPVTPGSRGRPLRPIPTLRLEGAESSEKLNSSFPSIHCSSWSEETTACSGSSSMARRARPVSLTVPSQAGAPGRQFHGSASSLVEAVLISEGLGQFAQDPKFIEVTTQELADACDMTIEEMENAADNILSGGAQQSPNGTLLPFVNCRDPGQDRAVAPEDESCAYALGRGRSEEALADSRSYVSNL
T1 sequence (Q8CC27 whole entry partner): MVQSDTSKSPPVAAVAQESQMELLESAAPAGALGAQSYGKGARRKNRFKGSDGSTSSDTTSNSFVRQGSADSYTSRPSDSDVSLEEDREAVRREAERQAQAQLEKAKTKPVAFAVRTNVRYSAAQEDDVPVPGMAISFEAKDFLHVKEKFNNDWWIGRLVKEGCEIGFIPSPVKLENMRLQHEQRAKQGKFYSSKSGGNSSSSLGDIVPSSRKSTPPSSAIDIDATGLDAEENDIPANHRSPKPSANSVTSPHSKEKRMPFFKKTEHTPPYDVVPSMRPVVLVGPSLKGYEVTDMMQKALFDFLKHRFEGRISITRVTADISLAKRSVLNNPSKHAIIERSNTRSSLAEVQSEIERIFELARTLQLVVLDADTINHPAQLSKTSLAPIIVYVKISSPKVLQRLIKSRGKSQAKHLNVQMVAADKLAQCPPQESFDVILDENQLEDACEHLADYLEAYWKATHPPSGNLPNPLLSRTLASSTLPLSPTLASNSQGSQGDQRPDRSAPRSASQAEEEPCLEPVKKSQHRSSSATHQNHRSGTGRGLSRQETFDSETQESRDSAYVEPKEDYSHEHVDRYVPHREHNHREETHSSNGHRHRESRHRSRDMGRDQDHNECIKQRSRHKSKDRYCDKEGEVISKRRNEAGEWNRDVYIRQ
T1 sequence (O08532 25-956 partner limits assumed): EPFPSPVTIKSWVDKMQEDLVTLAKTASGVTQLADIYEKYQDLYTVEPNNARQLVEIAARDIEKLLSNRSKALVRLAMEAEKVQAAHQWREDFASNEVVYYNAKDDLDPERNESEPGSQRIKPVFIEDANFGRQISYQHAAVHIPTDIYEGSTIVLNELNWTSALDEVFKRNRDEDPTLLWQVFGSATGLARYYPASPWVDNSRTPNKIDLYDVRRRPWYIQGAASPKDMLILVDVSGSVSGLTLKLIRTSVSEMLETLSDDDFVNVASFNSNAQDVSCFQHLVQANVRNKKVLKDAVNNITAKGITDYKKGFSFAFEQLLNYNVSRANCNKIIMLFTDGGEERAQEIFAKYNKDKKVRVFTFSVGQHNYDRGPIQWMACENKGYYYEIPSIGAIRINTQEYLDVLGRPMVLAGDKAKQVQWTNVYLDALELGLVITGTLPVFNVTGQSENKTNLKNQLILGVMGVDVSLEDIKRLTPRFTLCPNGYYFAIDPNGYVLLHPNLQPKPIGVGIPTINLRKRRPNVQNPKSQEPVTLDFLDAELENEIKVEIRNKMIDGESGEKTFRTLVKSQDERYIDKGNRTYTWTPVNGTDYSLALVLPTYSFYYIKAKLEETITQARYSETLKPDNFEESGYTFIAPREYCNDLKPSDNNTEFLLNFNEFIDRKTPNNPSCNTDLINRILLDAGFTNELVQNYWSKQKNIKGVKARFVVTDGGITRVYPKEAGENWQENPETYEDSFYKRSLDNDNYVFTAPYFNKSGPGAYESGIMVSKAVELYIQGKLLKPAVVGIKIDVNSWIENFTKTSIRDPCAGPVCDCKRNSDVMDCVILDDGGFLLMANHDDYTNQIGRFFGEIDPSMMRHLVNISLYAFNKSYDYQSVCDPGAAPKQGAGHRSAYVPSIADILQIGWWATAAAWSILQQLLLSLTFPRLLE
T1 sequence (O08532 957-1103 partner limits assumed): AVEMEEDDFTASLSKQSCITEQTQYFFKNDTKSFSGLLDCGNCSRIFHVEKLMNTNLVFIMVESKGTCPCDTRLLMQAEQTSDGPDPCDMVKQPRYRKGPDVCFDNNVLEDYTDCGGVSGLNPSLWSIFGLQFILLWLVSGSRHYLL

| Compound | beating frequency / contraction (L-type calcium channels) | chronotropic effect on the beating frequency of maGSC-derived cardiomyocytes (L-type calcium channels) | further results |
| --- | --- | --- | --- |
| CC1(C)[C@@H](OC(=O)CCC(=O)O)CC[C@]2(C)[C@H]3C(=O)C=C4[C@@H]5C[C@@](C)(C(=O)O)CC[C@]5(C)CC[C@@]4(C)[C@]3(C)CC[C@@H]12 [carbenoxolone, 3β-hydroxy-11-oxoolean-12-en-30-oic acid 3-hemisuccinate] |  |  | fluorescence recovery after photobleaching (gap junctions): disrupted; also recorded: almost completely abolished |
| COc1ccc([C@@H]2Sc3ccccc3N(CCN(C)C)C(=O)[C@@H]2OC(C)=O)cc1 [diltiazem] | almost completely blockes the contraction | dose-dependent negative chronotropic effects |  |
| [Cd] [cadmium] |  |  | spontaneous APs [1]: completely abolished |
| O=C1Nc2cc(Br)ccc2/C1=C1/Nc2ccccc2/C1=N\O [BIO, (2′Z, 3′E)-6-Bromoindirubin-3′-oxime] |  |  | formation of ESC-like colonies (human SSCs): optimized the formation of ESC-like colonies; formation of ESC-like colonies (non-human primate SSCs): optimized the formation of ESC-like colonies |
| (S)-BayK 8644 | doubles the beating frequency | dose-dependent positive chronotropic effects |  |

Source: patent US20100034779A1, “COMPOSITIONS AND METHODS FOR PRODUCING PLURIPOTENT CELLS FROM ADULT TESTIS” (priority 2005, published 2010)
